{
  "source": "patent US20090227606A1",
  "about": "“Methods for Preventing or Treating Acute and Chronic Pain” (priority 2006, published 2009)",
  "assay_type_in_all_cases": "cell-based, rat",
  "key": {"[1]": {"test_system": "primary cultured astrocytes", "experiment": "Astrocyte morphology and process length, phase contrast microscopy", "settings": "3 days or 7 days of treatment, phase contrast microscopy", "method": "Astrocyte cultures were prepared from the cortices of neonatal rats (1-3 days old) using the Worthington Papain Dissociation System (Worthington Biochemical Corporation, Lakewood, N.J.) according to the method of Huettner and Baughman (1986. J. Neurosci. 6:3044-3060). Briefly, cortices of neonatal rats were dissected, treated with papain (20 U/ml), dissociated by trituration and plated in 75 cm^2 flasks in Dulbecco's modified Eagle's medium (DMEM) supplemented with 10% charcoal-stripped fetal bovine serum (FBS), 1% GlutaMax and 1% penicillin/streptomycin (P/S, 100 U/ml penicillin, 100 μg/ml streptomycin, P/S). Cells were fed twice weekly until they reached confluence (Day in vitro, DIV 10-12) at which point they were mechanically shaken for 1 hr on an orbital shaker to remove any remaining oligodendrocytes and microglia. Subsequently, cultures were treated with trypsin for 30 minutes at 37° C. and re-plated into 6 or 12-well dishes at a density of about 3.0×10^4 cells/cm^2. Resultant cultures were greater than 95% astrocytic as determined by GFAP immunostaining.\n(§1) After approximately 14 days (2 days after subplating into plates, DIV 14) astrocytes had formed a confluent monolayer. […] Phase contrast microscopy was then carried out in order to assess the morphology of cells after the various treatments. Length of astrocyte processes was quantified by measuring all processes in 2-3 phase contrast images/group by an independent observer, blinded to the treatment groups using Image J v1.34s (National Institutes of Health, Bethesda, Md.)."}, "[2]": {"test_system": "GLAST mRNA", "experiment": "Real Time RT-PCR of cultured astrocytes, GLAST mRNA", "method": "as §1\nTotal RNA was isolated from astrocyte cultures using the Qiagen RNeasy mini-kit (Qiagen Inc., Valencia, Calif.) according to the manufacturer's protocol for isolation of total RNA from animal cells. Reverse transcription (RT) was carried out using the high-capacity cDNA archive kit (Applied Biosystems, Foster City, Calif.) according to the vendor's protocol. Real-time RT-PCR reactions were carried out in a total reaction volume of 25 μL containing a final concentration of 1.5 U Platinum Taq DNA polymerase (Invitrogen Corporation, Carlsbad, Calif.); 20 mM Tris HCl (pH 8.4); 50 mM KCl; 3 mM MgCl2; 200 μM dGTP, dCTP, and dATP; 400 μM dUTP and 1 U of UDG (uracyl DNA glycosylase); 900 nM of forward and reverse primers; 300 nM Taqman probe; and 5 μL of cDNA (50 ng) from the RT step. The iCycler™ Multicolor Real-Time PCR detection system (Bio-Rad Laboratories, Hercules, Calif.) was used to quantify PCR product. The fluorescence and threshold values (CT) obtained were used to compare the relative amount of target mRNA in experimental groups to those of controls using the 2^−ΔΔC^T method (Livak, K. J. and T. D. Schmittgen. 2001. Methods 25:402-408). Each experiment was run twice and samples were run in duplicate. For each sample, the mean CT value for the control gene (GAPDH) was then subtracted from the mean CT value for the gene of interest (GLT-1, GLAST) to obtain a ΔCT value. […] The relative fold change from control was then expressed by calculation of 2^−ΔΔC^T for each sample and the results are expressed as the group mean fold change±SEM."}, "[3]": {"test_system": "GLT-1", "experiment": "Western blot of cultured astrocytes, GLT-1 protein", "method": "as §1\nCells were scraped into PBS containing a protease inhibitor cocktail (1:1000, Sigma Chemical Co., St. Louis, Mo.) and then lysed by sonication in 5 one-second pulses. The samples were stored at −80° C. until use. Total protein was determined using the Lowry method (DC assay, Bio-Rad, Hercules, Calif.). Forty micrograms of protein (diluted in sample buffer and boiled) and standard protein markers were subjected to SDS/7.5% polyacrylamide gel electrophoresis and transferred to polyvinylidene difluoride (PVDF) membranes. Nonspecific binding was blocked by incubation with 5% milk/PBS-Tween at room temperature for 1 hour followed by incubation overnight at 4° C. with rabbit anti-GLT-1 (1:500) or guinea pig anti-GLAST (1:2500). The following day, blots were washed and incubated for 1 hour at room temperature with goat anti-rabbit HRP-conjugated secondary (1:3000) or goat anti-guinea pig HRP-conjugated secondary antibody (1:5000) and visualized with enhanced chemiluminescence (ECL). Images were obtained using the Typhoon Imaging System (Amersham-GE Healthcare, Piscataway, N.J.). Finally, blots were incubated for 15 minutes in stripping buffer and reprobed with a monoclonal mouse anti-β-actin antibody (1:10,000) as a loading control. Densitometric analysis was performed using ImageQuant 5.2 (Molecular Dynamics, GE Healthcare, Piscataway, N.J.)."}},
  "note": "Entries after “also recorded” stand apart in the source; their conditions may differ.",
  "data": [
    {"compound": "CCCn1cnc2c1c(=O)n(CCCCC(C)=O)c(=O)n2C", "note": "[propentofylline]", "values": [
      {"measurement": "astrocyte morphology", "setting": "[1]", "result": "dose-dependent shift from a flat, polygonal shape to a stellate, process-bearing shape"},
      {"measurement": "increase in GLAST mRNA", "setting": "[2]; both days 3 and 7", "result": "1.5-2 fold"},
      {"measurement": "GLAST mRNA level, in words", "setting": "[2]; propentofylline 10, 100, 1000 μM, db-cAMP 250 μM, relative to GAPDH", "result": "enhancement of GLT-1 and GLAST mRNA levels in a dose-dependent manner; also recorded: dose-dependently induced GLT-1 and GLAST at the mRNA level"},
      {"measurement": "GLT-1 protein level, in words", "setting": "[3]; 3 or 7 days, normalized to β-actin", "result": "dose-dependently increased levels of GLT-1 protein"},
      {"measurement": "increase in GLT-1 protein levels", "setting": "[3]; 7 days, high dose", "result": 100, "unit": "fold"},
      {"measurement": "increase in GLT-1 protein levels", "setting": "[3]; after 3 days of treatment", "result": "about 10 fold"}
    ]}
  ]
}
